From EP3797781A1, “USE OF EC-7072 AND SYNERGIC COMPOSITIONS THEREOF IN TREATMENT OF CHRONIC LYMPHOCYTIC LEUKEMIA” (priority 2019, dated 2021)

Tested on: isolated leukemia cells from patients with CLL
Assay: qPCR analysis of gene expression in isolated leukemia cells
Assay type: cell-based, human
Conditions: 6 hours
Protocol: Isolated leukemia cells from patients with CLL were incubated with EC-7072 (200 nM) or DMSO for 6 hours. Total RNA was extracted using RNeasy Mini Kit (Qiagen). 2 µg total RNA were used for cDNA synthesis using High-Capacity cDNA Reverse Transcription Kit (Applied Biosystems). Quantitative RT-PCR was performed using SYBR Green PCR Master Mix (Applied Biosystems) in a 7300 Real-Time PCR System and each sample was analyzed in triplicate. Table 1. Primers used in qPCR
Expression of BCR-related genes was analyzed by qPCR in isolated CLL leukemia cells (n = 6) exposed to 200 nM EC-7072 for 6 hours (Figure 6A).
Expression of relevant genes that regulate apoptosis in CLL was analyzed by qPCR in isolated leukemia cells from patients with CLL (n = 6) exposed to 200 nM EC-7072 for 6 hours, to obtain the mean relative expression to the control (DMSO) control condition (Figure 6D).
The dysregulation of BCL2 expression in primary CLL by EC-7072 was evaluated by: • (i) incubating isolated CLL cells (n = 6) from patients with CLL following treatment with EC-7072 (200 nM) for 6 hours and extracting total RNA. Relative expression of BLC2 was determined by qPCR to obtain the mean relative expression to the control (DMSO) condition (Figure 6F); • (ii) incubating isolated CLL cells (n = 6) following treatment with 200 nM EC-7072 for 12 and 18 hours. BCL2 levels were evaluated by intracellular flow cytometry (Figure 6G); • (iii) incubating isolated T cells (n = 3) from patients with CLL following treatment with EC-7072 (200 nM) for 6 hours and extracting total RNA. Relative expression of BLC2 was determined by qPCR to obtain the mean relative expression to the control (DMSO) condition (Figure 6H); • (iv) incubating PBMCs (Figure 6I) and isolated T cells (Figure 6J) from patients with CLL (n = 3) following treatment with 200 nM EC-7072 for 24 hours. T-cell death and apoptosis were assessed by DiOC6(3)/PI staining to obtain percentages of viable [DiOC6(3)^+] cells and the mean percentages of apoptotic [DiOC6(3)^low PI^-] and dead [PI^+] cells. […]

CO[C@@H]([C@@H]1Cc2cc3cc(O[C@H]4C[C@@H](O[C@H]5C[C@@H](O)[C@H](O)[C@@H](C)O5)[C@H](O)[C@@H](C)O4)c(C)c(O)c3c(O)c2C(=O)[C@H]1O[C@H]1C[C@@H](O[C@H]2C[C@@H](O[C@H]3C[C@](C)(O)[C@H](O)[C@@H](C)O3)[C@@H](O)[C@@H](C)O2)[C@H](O)[C@@H](C)O1)[C@@H](O)C(C)=O [EC-7072, mithramycin SK]
expression of genes required for functional BCR signaling (CD79B, SYK, LYN, PIK3CD, PLCG2, CARD11) (200 nM, RNA-seq, validated by qPCR (n = 6)): broad downregulation | gene expression of BCL2 (200 nM, isolated CLL cells (n = 6)): significantly downregulated | expression of BCL2 upon BCR activation (EC-7072 200 nM in combination with α-IgM (10 µg/mL), n = 4): restore the expression of BCL2 to basal levels
